The text below walks through data of patent US5359073A, “Substituted-phenyl (N,N'-cycloalkyl/alkyl carboxamide)-1H/3H-imidazo[4,5-b]pyridine compounds as PAF antagonists” (G. D. Searle & Co., priority 1992, dated 1994).

In test [1] the target is T1, PAF receptor (human platelet membrane) (Homo sapiens, UniProt P25105).
T1 construct: The platelets were broken by freezing in a dry ice-ethanol bath; tissue Lifesource, Inc. (Glenview, Ill.); host or cells: human packed platelets (membrane preparation)
T1 sequence (P25105 whole entry): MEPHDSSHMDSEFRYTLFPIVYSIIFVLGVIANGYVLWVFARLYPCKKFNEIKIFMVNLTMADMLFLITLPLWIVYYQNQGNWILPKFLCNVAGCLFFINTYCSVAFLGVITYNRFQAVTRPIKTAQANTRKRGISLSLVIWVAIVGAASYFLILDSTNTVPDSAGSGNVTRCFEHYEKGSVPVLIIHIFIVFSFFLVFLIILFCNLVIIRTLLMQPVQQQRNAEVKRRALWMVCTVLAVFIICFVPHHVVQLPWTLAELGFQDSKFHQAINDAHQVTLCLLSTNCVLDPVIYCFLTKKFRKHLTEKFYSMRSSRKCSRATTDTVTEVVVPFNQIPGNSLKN
As to the kind of experiment: Assay A: Human Platelet Receptor Binding (inhibition of specific [^3 H]PAF binding to human platelet membrane preparation). The conditions noted are these: for IC50: human platelet membranes, 0.75 nM [^3 H]PAF, 30 minutes at 24° C., pH 7.4. As to the method:
Compounds of the invention were evaluated for their ability to inhibit specific binding of [^3 H]PAF to human platelet membrane preparation. Human packed platelets were obtained from Lifesource, Inc. (Glenview, Ill.) and washed 3 times with 10 mM Trizma pH 7.0, 2 mM EDTA (dipotassium salt), 150 mM KCL and then once with 10 mM Trizma 7.4, 20 mM CaCL2. The platelets were broken by freezing in a dry ice-ethanol bath, followed by thawing in 24° C. water baths. The preparation was centrifugation (40,000 x g, 20 minutes, 4° C.) and the pellet resuspended in 10 mM Trizma 7.4, 20 mM CaCL2, 5 mg/ml human albumin. Protein concentration in the platelet membrane preparation was determined by the Lowry method [ref]. Aliquots of the membrane preparation were stored at -70° C. Each preparation was characterized for PAF receptor number and dissociation constant (Kd). In binding assays 5 μl of test compound, solubilzed in DMSO, was added to polypropylene tubes along with 0.75 nM [^3 H]PAF and 200 mcl [0.075 nM] of membranes and 95 μl 10 mM Trizma 7.4, 20 mM CaCL2, 5 mg/ml human albumin. Tubes were incubated for 30 minutes at 24° C. The incubation was terminated by adding 4 ml of ice-cold 10 mM Trizma DH 7.4, 20 mM CaCL2 and 20 mg/ml BSA prior to vacuum filtration using Whatman GF/C filters. Filters were prepared and counted for a scintillation counter. All DPM values were corrected for background and isotope decay. Triplicate determinations for single doses were averaged. The amount of non-specific binding was subtracted from all dose averages, giving an amount of specific binding in all cases. The IC50 values for compounds of the invention determined by the Allfit program using percent displacement data. Allfit is a `basic` computer program for simultaneous curve fitting of a family of signoidal dose-response curves using the four parameter logistic equation.

In test [2] the test system is PAF-induced aggregation of human platelets. Nature of the test: Assay B: Human Platelet Aggregation Inhibition (PAF-induced aggregation in human platelet-rich plasma). The format is cell-based. To be noted: 37°. On the procedure: Compounds of the invention were evaluated for their ability to inhibit PAF-induced aggregation of human platelets in a human-platelet-rich plasma. Venous blood was collected from donors who fasted for 8 hours and were instructed not to use antiinflammatory drugs for 2 weeks prior to blood draw. Blood was collected into syringes containing 0.1 ml of 3.8% [w/v] citrate and centrifuged in polypropylene tubes at 150xg for 20 minutes at room temperature. The platelet rich plasma [PRP] was collected and let sit for 20 minutes at room temperature. Platelet activating factor [PAF] was diluted in 0.9% NaCl with 0.25% bovine serum albumin. Silicon treated cuvettes with stir bars were placed in the 37° heating block of the platelet aggregometer [Bio/Data Corporation, Platelet Aggregation Profiler, Model PAP-4]. PRP and test compound were added to cuvettes and aggregation monitored for 10-15 seconds at 37° with stirring. PAF was added and aggregation monitored for an additional 3 minutes. Peak aggregation was considered the peak of the first aggregation wave usually 45-60 seconds after PAF addition. Inhibition of aggregation was determined by the following: 1-[(% aggregation in the presence of compound).div.(% maximal aggregation)]. A log/logit transformation was used to determine half maximal inhibitory concentration of a test compound [IC50 ].

The target in test [3] is T2, [^3 H]PAF receptors on human neutrophil membrane (Homo sapiens, UniProt P25105).
T2 construct: Human neutrophils were isolated from venous blood by dextran sedimentation; from tissue; host or cells: human neutrophils from venous blood (membrane preparation)
T2 sequence (P25105 whole entry): as above
As to the kind of experiment: Assay C: Human Neutrophil Receptor Binding (inhibition of specific [^3 H]PAF binding to human neutrophil membrane). The conditions noted are these: human neutrophil membranes, 0.9 nM [^3 H]PAF, 30 minutes at 24°, pH 7.4. On the procedure: Compounds of the invention were evaluated for their ability to inhibit PAF-induced specific binding of [^3 H]PAF to receptors on human neutrophil membrane. Human neutrophils were isolated from venous blood by dextran sedimentation followed by density gradient centrifugation using Ficoll-Hypaque [J. Biol. Chem., 254:7865-7869, 1979]. Residual red blood cells were removed by hypotonic lysis. Neutrophils were suspended in 50 mM Tris-HCl buffer, pH 7.7, and cells disrupted by sonication for 15 seconds on ice. Unbroken cells and nuclei were removed by slow speed centrifugation [1000xg, 10 min. 4°]. The resultant supernatant was centrifuged at 100,000xg for 60 minutes at 4°. The pellet was suspended in 10 mM Tris-HCl, pH 7.4, with 10 mM MgCl2. Protein content was determined by the method of Lowry [J. Biol. Chem., 193:265-275, 1951]. Membranes were characterized for the concentration of binding sites [Bmax] and affinity for the ligand [Kd] using [^3 H]PAF by Scatchard analysis. Binding assays were conducted by incubating 50 mcg of membranes with 0.9 nM [^3 H]PAF and test compounds in 10 mM Tris-HCl buffer, pH 7.4, containing 0.1% bovine serum albumin. Nonspecific binding was determined by the addition of 1 μM PAF. Binding assay were done for 30 minutes at 24°. The assay was terminated by filtration-through a Whatman GF/C glass filters and radioactivity determined by liquid scintillation counting.

As a reminder, the IC50 is the point on the concentration scale where inhibition reaches its midpoint. For the compound `COc1cc(C(=O)N(C2CCCC2)C2CCCC2)ccc1Cn1cnc2cccnc21` [Example 1], the IC50 in test [1] worked out at 1030 nM.
Consider `COc1cc(C(=O)N(C2CCCC2)C2CCCC2)ccc1Cn1cnc2ncccc21` [Example 2, N, N-dicyclopentyl-4-(1H-imidazo[4,5-b]pyridin-1-ylmethyl)-3-methoxybenzamide], for which the IC50 in test [2] came to 227 nM; in test [1], 78 nM.
Take `COc1cc(Cn2cnc3cccnc32)ccc1C(=O)N(C(C)C)C1CCCCC1` [Example 3, N-cyclohexyl-4-(3H-imidazo[4,5-b]pyridin-3-ylmethyl)-2-methoxy-N-(1-methylethyl)benzamide]: the IC50 in test [2] was determined as 7 nM; in test [1], 2 nM; in test [3], 0.5 nM.
Compound `COc1cc(Cn2cnc3ncccc32)ccc1C(=O)N(C(C)C)C1CCCCC1` [Example 4, N-cyclohexyl-4-(1H-imidazo[4,5-b]pyridin-1-ylmethyl)-2-methoxy-N-(1-methylethyl)benzamide] displayed an IC50 in test [1] of 150 nM.
On the same count and under the same terms, under `COc1cc(C(=O)N(C(C)C)C2CCCCC2)ccc1Cn1cnc2cccnc21` [Example 5, N-cyclohexyl-4-(3H-imidazo[4,5-b]pyridin-3-ylmethyl)-3-methoxy-N-(1-methylethyl)benzamide] stands 420 nM.
As for `COc1cc(C(=O)N(C(C)C)C2CCCCC2)ccc1Cn1cnc2ncccc21` [Example 6, N-cyclohexyl-4-(1H-imidazo[4,5-b]pyridin-1-ylmethyl)-3-methoxy-N-(1-methylethyl)benzamide], the IC50 in test [2] came to 113 nM; in test [1], 6 nM; in test [3], 8 nM.
The compound `COc1cc(Cn2cnc3cccnc32)ccc1C(=O)N(C1CCCC1)C1CC(C)CC(C)C1` (stereo not shown) [Example 7, N-cyclopentyl-N-(3,5-dimethylcyclohexyl)-4-(3H-imidazo[4,5-b]pyridin-3-ylmethyl)-2-methoxybenzamide] registered an IC50 in test [1] of 73 nM.
On the same count and under the same terms, for `Cc1cc(C(=O)N(C2CCCCC2)C2CCCC2)ccc1Cn1cnc2ncccc21` [Example 9, N-cyclohexyl-N-cyclopentyl-4-(1H-imidazo[4,5-b]pyridin-1-ylmethyl)-3-methylbenzamide] the value was 479 nM; for `Cc1cc(C(=O)N(C2CCCCC2)C2CCCC2)ccc1Cn1cnc2cccnc21` [Example 10, N-cyclohexyl-N-cyclopentyl-4-(3H-imidazo[4,5-b]pyridin-3-ylmethyl)-3-methylbenzamide], 5240 nM.
The same measure, in the same setting: under `COc1cc(C(=O)N(C(C)C)C2CCCCC2)ccc1Cn1c(C)nc2ncccc21` [Example 11, N-cyclohexyl-3-methoxy-N-(1-methylethyl)-4-[(2-methyl-1H-imidazo[4,5-b]pyridin-1-yl)methyl]benzamide] stands 9 nM; under `COc1cc(C(=O)N(C(C)C)C2CCCCC2)ccc1Cn1c(C)nc2cccnc21` [Example 12, N-cyclohexyl-3-methoxy-N-(1-methylethyl)-4-[(2-methyl-3H-imidazo [4,5-b]pyridin-3-yl)methyl]benzamide], 1160 nM; under `COc1cc(Cn2cnc3ncccc32)ccc1C(=O)N(C1CCCCC1)C1CCCC1` [Example 13, N-cyclohexyl-N-cyclopentyl-4-(1H-imidazo[4,5-b]pyridin-1-ylmethyl)-2-methoxybenzamide], 206 nM.
Still for that read-out and setting: for `COc1cc(C(=O)N(C(C)C)C2CCCCC2)ccc1Cn1c(-c2ccccc2Cl)nc2ncccc21` [Example 14, 4-[[2-(2-chlorophenyl)-1H-imidazo[4,5-b]pyridin-1-yl]methyl]-N-cyclohexyl-3-methoxy-N-(1-methylethyl)benzamide] the value was 395 nM.
In test [1], `COc1cc(C(=O)N(C(C)C)C2CCCCC2)ccc1Cn1c(-c2ccccc2Cl)nc2cccnc21` [Example 15, 4-[[2-(2-chlorophenyl) -3H-imidazo[4,5-b]pyridin-3yl]methyl]-N-cyclohexyl-3-methoxy-N-(1-methylethyl)benzamide] showed an IC50 of 574 nM.
`COc1cc(C(=O)N(C(C)C)C2CCCCC2)ccc1Cn1c(CO[Si](C)(C)C(C)(C)C)nc2ncccc21` [Example 16, N-cyclohexyl-4-[[2-[[[(1,1-dimethyethyl)dimethylsilyl]oxy]methyl]-1H-imidazo[4,5-b]pyridin-1-yl]methyl]-3-methoxy-N-(1-methylethyl)benzamide] gave an IC50 in test [1] of 51 nM.
Turning to `COc1cc(C(=O)N(C(C)C)C2CCCCC2)ccc1Cn1c(CO)nc2ncccc21` [Example 17, N-cyclohexyl-4-[[2-(hydroxymethyl)-1H-imidazo [4,5-b]pyridin-1-yl]methyl]-3-methoxy-N-(1-methylethyl)benzamide], the IC50 in test [1] turned out to be 6 nM.
Same read-out and setting: for `COc1cc(C(=O)N(C(C)C)C2CCCCC2)ccc1Cn1c(CO)nc2cccnc21` [Example 18, N-cyclohexyl-4-[[2-(hydroxymethyl)-3H-imidazo [4,5-b]pyridin-3-yl]methyl]-3-methoxy-N-(1-methylethyl)benzamide] the value was 11 nM.
Turning to `COc1cc(C(=O)N(C(C)C)C2CCCCC2)ccc1Cn1c(CN(C)C)nc2ncccc21` [Example 19, N-cyclohexyl-4-[[2-[(dimethylamino)methyl]-1H-imidazo[4,5-b]pyridin-1-yl]methyl]-3-methoxy-N-(1-methylethyl)benzamide], the IC50 in test [1] came to 3 nM.
What is called inhibition is the share of the control response that was lost under treatment. Read a low inhibition as a weak effect. Regarding `COc1cc(C(=O)N(C(C)C)C2CCCCC2)ccc1Cn1c(CN(C)C)nc2cccnc21` [Example 20, N-cyclohexyl-4-[[2-[(dimethylamino)methyl]-3H-imidazo[4,5-b]pyridin-3-yl]methyl]-3-methoxy-N-(1-methylethyl)benzamide], testing at 0.01 µM in test [1] (at 10 nM, two-run average) gave an inhibition of 62%. In test [1], this compound registered an IC50 of 10 nM.
`COCc1nc2ncccc2n1Cc1ccc(C(=O)N(C(C)C)C2CCCCC2)cc1OC` [Example 21, N-cyclohexyl-3-methoxy-4-[[2-(methoxymethyl)-1H-imidazo [4,5-b]pyridin-1-yl]methyl]-N-(1-methylethyl)benzamide] showed an IC50 in test [1] of 9 nM.
In test [1], `COCc1nc2cccnc2n1Cc1ccc(C(=O)N(C(C)C)C2CCCCC2)cc1OC` [Example 22, N-cyclohexyl-3-methoxy-4-[[2-(methoxymethyl)-3H-imidazo[4,5-b]pyridin-3-yl]methyl]-N-(1-methylethyl)benzamide] registered an IC50 of 88 nM.
Still for that read-out and setting: for `COc1cc(C(=O)N(C(C)C)C2CCCCC2)ccc1Cn1c(N(C)C)nc2ncccc21` [Example 23, N-cyclohexyl-4-[[2-(dimethylamino)-1H-imidazo[4,5-b]pyridin-1-yl]methyl]-3-methoxy-N-(1-methylethyl)benzamide] the value was 13 nM.
